Test results as given in patent US9555053B2, “Use of oligosaccharide compounds for the prevention and treatment of pathological scars” (LABORATOIRES URGO, priority 2011, dated 2017).

Key:
Type in all cases: cell-based
[1] = system: collagen lattices seeded with normal human dermal fibroblasts (NHDFs); experiment: Collagen lattice retraction (area of collagen lattices seeded with NHDFs); settings: for % relative to the control: lattice area relative to control without dressing
Experimental: The collagen lattices were obtained by seeding 0.8×10^6 normal human dermal fibroblasts (NHDFs) in a gel of collagen type I with a final concentration of 1.3 mg/ml.
A dressing (sold under the trade name Urgotul Start) comprising 7.5% of the potassium salt of sucrose octasulfate was applied to the surface of the collagen lattices.
A control series, without dressing, was carried out in order to evaluate the normal contraction of the collagen gel by the seeded NHDFs.
Likewise, a positive control was carried out by adding TGF-β at a concentration of 10 ng/ml in order to visualize the strong contraction induced by the NHDFs highly differentiated into myofibroblasts.
The incubation was maintained up to 7 days.
The effects of the potassium salt of sucrose octasulfate on the retraction of the collagen lattices was observed by means of photographic analysis (FIG. 2) and image analysis measurement of the area of the lattices once contracted.

[2] = system: normal human dermal fibroblasts (NHDFs); experiment: Differentiation of fibroblasts into myofibroblasts: α-SMA immunofluorescence and counting of differentiated cells; settings: NHDF cultures, TGF-β 10 ng/ml, KSOS 2 mg/ml, 4 days of culture
Experimental: (§1) Cultures of normal human dermal fibroblasts (NHDFs) were prepared in DMEM/F12 culture medium (sold by the company Invitrogen) supplemented with 10% of fetal calf serum (sold by the company Invitrogen), with 5 μg/ml of insulin (sold by the company Promokine) and with 1 ng/ml of bFGF (sold by the company Promokine).
(§2) For this, the NHDF cultures were placed in a P100 dish coated with collagen at 5 μg/ml in DMEM/F12 medium supplemented with 10% of fetal calf serum and supplemented with 10 ng/ml of TGF-β(sold by the company Promocell), which is a growth factor that controls cell proliferation and differentiation (differentiated control in FIG. 1).
(§3) A nondifferentiated control was also prepared using cultures in DMEM/F12 supplemented with 10% calf serum without TGF-β.
(§4) The KSOS was added to the control and differentiated-control cultures to determine its effect on differentiation, in a proportion of 2 mg/ml.
(§5) The results were analyzed after 4 days of culture.
The cells were fixed with 4% formaldehyde and permeabilized with Triton. The immunolabeling is carried out using DAPI staining (which gives a blue color) for the cell nuclei, a rabbit anti-α-SMA antibody and an anti-rabbit secondary antibody coupled to Cys3 (sold by Promega).
The number of differentiated cells over the total number of cells is determined by cell counting. […]

[3] = system: α-SMA expression in normal human dermal fibroblasts (NHDFs); experiment: Inhibition of TGF-β-induced differentiation of fibroblasts into myofibroblasts: α-SMA expression by quantitative RT-PCR and Western blot; settings: NHDF cultures, TGF-β 10 ng/ml, KSOS 2 mg/ml, D4
Experimental: as §1, §2, §3, §4, §5
For the measurement of the inhibitory effect of the compound according to the invention, KSOS was added at 2 mg/ml to the cultures undergoing differentiation. • By quantitative RT-PCR: the mRNA was extracted using the Trizol, chloroform and isopropanol method. • By the Western blot method: total cell extracts were prepared and a Western blot was carried out. […]

Row | Compound | contraction of the collagen lattices (in words) ([1]; between day 1 and day 7) | differentiation of fibroblasts into myofibroblasts (differentiated cells expressing α-SMA, immunofluorescence) [2] | α-SMA expression (mRNA by quantitative RT-PCR, protein by Western blot) [3] | Average of the areas ([1]; Day 1) [mm^2] | % relative to the control ([1]; Day 1) [%] | Average of the areas ([1]; Day 4) [mm^2] | % relative to the control ([1]; Day 4) [%] | Average of the areas ([1]; Day 7) [mm^2] | % relative to the control ([1]; Day 7) [%]
1 | O=S(=O)([O-])OC[C@H]1O[C@@](COS(=O)(=O)[O-])(O[C@H]2O[C@H](COS(=O)(=O)[O-])[C@@H](OS(=O)(=O)[O-])[C@H](OS(=O)(=O)[O-])[C@H]2OS(=O)(=O)[O-])[C@@H](OS(=O)(=O)[O-])[C@@H]1OS(=O)(=O)[O-].[K+].[K+].[K+].[K+].[K+].[K+].[K+].[K+] [KSOS, potassium salt of sucrose octasulfate] | limits the contraction of the collagen lattices | inhibition of the differentiation | inhibition of this induction |  |  |  |  |  | 
2 | TGF-β |  |  | induction of α-SMA expression | 217.3 | 95 | 145.9 | 76 | 97 | 56
